Measurements: US10987359B2, “Oxadiazepinone derivatives and methods of treating hepatitis B infections” (priority 2016, dated 2021)

What follows are compounds tested on HBV (assay: HBV replication inhibition assay (BDNA assay) in HepG2.2.15 cells). Details: HBV replication assay (BDNA assay), HepG2.2.15 cells; read-out: DNA EC50.
Type: cell-based
Summary of the method: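 HepG2.2.15 cells with stably integrated HBV were treated with serially diluted compounds at 0.5% DMSO for 6 days, with medium and compound refreshed at day 3. Encapsidated HBV DNA from DNase-treated supernatant was quantified by branched DNA assay. EC50 came from % inhibition versus DMSO, fitted non-linearly.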

SMILES	EC50
C[C@@H]1Cc2nn3c(c2CN1C(=O)Nc1ccc(F)c(C#N)c1)C(=O)N(C)OC(CF)C3 (stereo in doubt) [Compound 087_E2, (4R*,9R)—N-(3-cyano-4-fluorophenyl)-4-(fluoromethyl)-2,9-dimethyl-1-oxo-1,4,5,8,9,11-hexahydropyrido[4′,3′:3,4]pyrazolo[5,1-d][1,2,5]oxadiazepine-10(2H)-carboxamide]	1 to 100 nM
C[C@@H]1Cc2nn3c(c2CN1C(=O)Nc1cc(Br)c(F)cc1F)C(=O)N(C)OC(CO)C3 (stereo in doubt) [Compound 089_E2, (4R*,9R)—N-(5-bromo-2,4-difluorophenyl)-4-(hydroxymethyl)-2,9-dimethyl-1-oxo-1,4,5,8,9,11-hexahydropyrido[4′,3′:3,4]pyrazolo[5,1-d][1,2,5]oxadiazepine-10(2H)-carboxamide]	1 to 100 nM
C[C@@H]1Cc2nn3c(c2CN1C(=O)Nc1cc(Cl)c(F)cc1F)C(=O)N(C)OC(CO)C3 (stereo in doubt) [Compound 090_E2, (4R*,9R)—N-(5-chloro-2,4-difluorophenyl)-4-(hydroxymethyl)-2,9-dimethyl-1-oxo-1,4,5,8,9,11-hexahydropyrido[4′,3′:3,4]pyrazolo[5,1-d][1,2,5]oxadiazepine-10(2H)-carboxamide]	1 to 100 nM
C[C@@H]1Cc2nn3c(c2CN1C(=O)Nc1ccc(F)c(Cl)c1F)C(=O)N(C)OC(CO)C3 (stereo in doubt) [Compound 091_E2, (4R*,9R)—N-(3-chloro-2,4-difluorophenyl)-4-(hydroxymethyl)-2,9-dimethyl-1-oxo-1,4,5,8,9,11-hexahydropyrido[4′,3′:3,4]pyrazolo[5,1-d][1,2,5]oxadiazepine-10(2H)-carboxamide]	1 to 100 nM
C[C@@H]1Cc2nn3c(c2CN1C(=O)Nc1ccc(F)c(Br)c1)C(=O)N(C)OC(CN(C)C)C3 (stereo in doubt) [Compound 094_D2, (4R*,9R)—N-(3-bromo-4-fluorophenyl)-4-((dimethylamino)methyl)-2,9-dimethyl-1-oxo-1,4,5,8,9,11-hexahydropyrido[4′,3′:3,4]pyrazolo[5,1-d][1,2,5]oxadiazepine-10(2H)-carboxamide]	1 to 100 nM
C[C@@H]1Cc2nn3c(c2CN1C(=O)Nc1ccnc(Br)c1F)C(=O)N(C)OC(CN(C)C)C3 (stereo in doubt) [Compound 095_D2, (4R*,9R)—N-(2-bromo-3-fluoropyridin-4-yl)-4-((dimethylamino)methyl)-2,9-dimethyl-1-oxo-1,4,5,8,9,11-hexahydropyrido[4′,3′:3,4]pyrazolo[5,1-d][1,2,5]oxadiazepine-10(2H)-carboxamide]	100 to 500 nM
C[C@@H]1Cc2nn3c(c2CN1C(=O)Nc1ccc(F)c(C#N)c1)C(=O)N(C)OC(CN(C)C)C3 (stereo in doubt) [Compound 096_D1, (4S*,9R)—N-(3-cyano-4-fluorophenyl)-4-((dimethylamino)methyl)-2,9-dimethyl-1-oxo-1,4,5,8,9,11-hexahydropyrido[4′,3′:3,4]pyrazolo[5,1-d][1,2,5]oxadiazepine-10(2H)-carboxamide]	100 to 500 nM
C[C@@H]1Cc2nn3c(c2CN1C(=O)Nc1ccc(F)c(C#N)c1)C(=O)N(C)OC(CN(C)C)C3 (stereo in doubt) [Compound 096_D2, (4R*,9R)—N-(3-cyano-4-fluorophenyl)-4-((dimethylamino)methyl)-2,9-dimethyl-1-oxo-1,4,5,8,9,11-hexahydropyrido[4′,3′:3,4]pyrazolo[5,1-d][1,2,5]oxadiazepine-10(2H)-carboxamide]	1 to 100 nM
Cc1cc(NC(=O)N2Cc3c(nn4c3C(=O)N(C)OC(CN(C)C)C4)C[C@H]2C)ccc1F (stereo in doubt) [Compound 097_D2, (4R*,9R)-4-((dimethylamino)methyl)-N-(4-fluoro-3-methylphenyl)-2,9-dimethyl-1-oxo-1,4,5,8,9,11-hexahydropyrido[4′,3′:3,4]pyrazolo[5,1-d][1,2,5]oxadiazepine-10(2H)-carboxamide]	1 to 100 nM
C[C@@H]1Cc2nn3c(c2CN1C(=O)Nc1ccc(F)c(C(F)(F)F)c1)C(=O)N(C)OC(CN(C)C)C3 (stereo in doubt) [Compound 098_D2, (4R*,9R)-4-((dimethylamino)methyl)-N-(4-fluoro-3-(trifluoromethyl)phenyl)-2,9-dimethyl-1-oxo-1,4,5,8,9,11-hexahydropyrido[4′,3′:3,4]pyrazolo[5,1-d][1,2,5]oxadiazepine-10(2H)-carboxamide]	1 to 100 nM
C[C@@H]1Cc2nn3c(c2CN1C(=O)Nc1cc(Cl)c(F)cc1F)C(=O)N(C)OC(CN(C)C)C3 (stereo in doubt) [Compound 099_D2, (4R*,9R)—N-(5-chloro-2,4-difluorophenyl)-4-((dimethylamino)methyl)-2,9-dimethyl-1-oxo-1,4,5,8,9,11-hexahydropyrido[4′,3′:3,4]pyrazolo[5,1-d][1,2,5]oxadiazepine-10(2H)-carboxamide]	100 to 500 nM
C[C@@H]1Cc2nn3c(c2CN1C(=O)Nc1cc(Br)c(F)cc1F)C(=O)N(C)OC(CN(C)C)C3 (stereo in doubt) [Compound 100_D1, (4S*,9R)—N-(5-bromo-2,4-difluorophenyl)-4-((dimethylamino)methyl)-2,9-dimethyl-1-oxo-1,4,5,8,9,11-hexahydropyrido[4′,3′:3,4]pyrazolo[5,1-d][1,2,5]oxadiazepine-10(2H)-carboxamide]	100 to 500 nM
C[C@@H]1Cc2nn3c(c2CN1C(=O)Nc1cc(Br)c(F)cc1F)C(=O)N(C)OC(CN(C)C)C3 (stereo in doubt) [Compound 100_D2, (4R*,9R)—N-(5-bromo-2,4-difluorophenyl)-4-((dimethylamino)methyl)-2,9-dimethyl-1-oxo-1,4,5,8,9,11-hexahydropyrido[4′,3′:3,4]pyrazolo[5,1-d][1,2,5]oxadiazepine-10(2H)-carboxamide]	1 to 100 nM

Same assay, conditions: Hepatitis B virus, HepG2.2.15, HBV replication assay (BDNA assay), HepG2.2.15 cells; read-out: DNA EC50

SMILES	EC50
C[C@@H]1Cc2nn3c(c2CN1C(=O)Nc1cc(Br)c(F)cc1F)C(=O)N(C)OC(CO)C3 (stereo in doubt) [Compound 089_E1, (4S*,9R)—N-(5-bromo-2,4-difluorophenyl)-4-(hydroxymethyl)-2,9-dimethyl-1-oxo-1,4,5,8,9,11-hexahydropyrido[4′,3′:3,4]pyrazolo[5,1-d][1,2,5]oxadiazepine-10(2H)-carboxamide]	1 to 100 nM
C[C@@H]1Cc2nn3c(c2CN1C(=O)Nc1cc(Cl)c(F)cc1F)C(=O)N(C)OC(CO)C3 (stereo in doubt) [Compound 090_E1, (4S*,9R)—N-(5-chloro-2,4-difluorophenyl)-4-(hydroxymethyl)-2,9-dimethyl-1-oxo-1,4,5,8,9,11-hexahydropyrido[4′,3′:3,4]pyrazolo[5,1-d][1,2,5]oxadiazepine-10(2H)-carboxamide]	1 to 100 nM
C[C@@H]1Cc2nn3c(c2CN1C(=O)Nc1ccc(F)c(Cl)c1F)C(=O)N(C)OC(CO)C3 (stereo in doubt) [Compound 091_E1, (4S*,9R)—N-(3-chloro-2,4-difluorophenyl)-4-(hydroxymethyl)-2,9-dimethyl-1-oxo-1,4,5,8,9,11-hexahydropyrido[4′,3′:3,4]pyrazolo[5,1-d][1,2,5]oxadiazepine-10(2H)-carboxamide]	1 to 100 nM
C[C@@H]1Cc2nn3c(c2CN1C(=O)Nc1ccc(F)c(Cl)c1)C(=O)N(C)OC(CN(C)C)C3 (stereo in doubt) [Compound 093_D2, (4R*,9R)—N-(3-chloro-4-fluorophenyl)-4-((dimethylamino)methyl)-2,9-dimethyl-1-oxo-1,4,5,8,9,11-hexahydropyrido[4′,3′:3,4]pyrazolo[5,1-d][1,2,5]oxadiazepine-10(2H)-carboxamide]	1 to 100 nM
C[C@@H]1Cc2nn3c(c2CN1C(=O)Nc1ccc(F)c(Br)c1)C(=O)N(C)OC(CN(C)C)C3 (stereo in doubt) [Compound 094_D1, (4S*,9R)—N-(3-bromo-4-fluorophenyl)-4-((dimethylamino)methyl)-2,9-dimethyl-1-oxo-1,4,5,8,9,11-hexahydropyrido[4′,3′:3,4]pyrazolo[5,1-d][1,2,5]oxadiazepine-10(2H)-carboxamide]	1 to 100 nM
C[C@@H]1Cc2nn3c(c2CN1C(=O)Nc1ccnc(Br)c1F)C(=O)N(C)OC(CN(C)C)C3 (stereo in doubt) [Compound 095_D1, (4S*,9R)—N-(2-bromo-3-fluoropyridin-4-yl)-4-((dimethylamino)methyl)-2,9-dimethyl-1-oxo-1,4,5,8,9,11-hexahydropyrido[4′,3′:3,4]pyrazolo[5,1-d][1,2,5]oxadiazepine-10(2H)-carboxamide]	100 to 500 nM
Cc1cc(NC(=O)N2Cc3c(nn4c3C(=O)N(C)OC(CN(C)C)C4)C[C@H]2C)ccc1F (stereo in doubt) [Compound 097_D1, (4 S*,9R)-4-((dimethylamino)methyl)-N-(4-fluoro-3-methylphenyl)-2,9-dimethyl-1-oxo-1,4,5,8,9,11-hexahydropyrido[4′,3′:3,4]pyrazolo[5,1-d][1,2,5]oxadiazepine-10(2H)-carboxamide]	1 to 100 nM
C[C@@H]1Cc2nn3c(c2CN1C(=O)Nc1ccc(F)c(C(F)(F)F)c1)C(=O)N(C)OC(CN(C)C)C3 (stereo in doubt) [Compound 098_D1, (4S*,9R)-4-((dimethylamino)methyl)-N-(4-fluoro-3-(trifluoromethyl)phenyl)-2,9-dimethyl-1-oxo-1,4,5,8,9,11-hexahydropyrido[4′,3′:3,4]pyrazolo[5,1-d][1,2,5]oxadiazepine-10(2H)-carboxamide]	1 to 100 nM
C[C@@H]1Cc2nn3c(c2CN1C(=O)Nc1cc(Cl)c(F)cc1F)C(=O)N(C)OC(CN(C)C)C3 (stereo in doubt) [Compound 099_D1, (4S*,9R)—N-(5-chloro-2,4-difluorophenyl)-4-((dimethylamino)methyl)-2,9-dimethyl-1-oxo-1,4,5,8,9,11-hexahydropyrido[4′,3′:3,4]pyrazolo[5,1-d][1,2,5]oxadiazepine-10(2H)-carboxamide]	100 to 500 nM
